Data reported in patent US6525001B1, “Substituted pyrimidine and pyridine herbicides” (Mid-American Commercialization Corporation, priority 1997, dated 2003).

Tests used:
Experiment in all cases: Test B pre-/postemergence
Type in all cases: in vivo
Set-up in all cases: key: 0 is no effect; 10 is complete control
[1] = system: wheat (Triticum aestivum)
Summary of the method: (§1)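 Scored visually 0 (none) to 10 (complete control) against untreated plants after twelve to sixteen greenhouse days. Test chemicals, formulated in surfactant-containing non-phytotoxic solvent, applied to soil after planting and, separately, onto 1- to 4-leaf (2–18 cm) plants.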

[2] = system: pigweed (Amaranthus retroflexus)
Summary of the method: as §1

[3] = system: velvetleaf (Abutilon theophrasti)
Summary of the method: as §1

[4] = system: soybean (Glycine max)
Summary of the method: as §1

[5] = system: broadleaf signalgrass (Brachiaria decumbens)
Summary of the method: as §1

[6] = system: rape (Brassica napus)
Summary of the method: as §1

[7] = system: purple nutsedge (Cyperus rotundus); details: for Plant response rating, Nutsedge: Preemergence; for Nutsedge plant response rating: Postemergence
Summary of the method: as §1

[8] = system: bedstraw (Galium aparine)
Summary of the method: as §1

[9] = system: sugar beet (Beta vulgaris)
Summary of the method: as §1

[10] = system: cocklebur (Xanthium strumarium)
Summary of the method: as §1

[11] = system: corn (Zea mays)
Summary of the method: as §1

[12] = system: giant foxtail (Setaria faberii)
Summary of the method: as §1

[13] = system: crabgrass (Digitaria sanguinalis)
Summary of the method: as §1

[14] = system: momingglory (Ipomoea hederacea)
Summary of the method: as §1

[15] = Preemergence, Rate 62 g/ha, scale of 0 to 10

SMILES: Cc1cnc(-n2ccc(C(F)(F)C(F)(F)F)n2)nc1C(=O)c1cccc(OC(F)(F)F)c1 [Compound 62]
- Plant response rating, Wheat [1, 15]: 0
- Wheat plant response rating ([1]; Rate 62 g/ha, Postemergence): 1
- Wheat plant response rating ([1]; Rate 125 g/ha, Postemergence): 2
- Plant response rating, Wheat ([1]; Rate 125 g/ha, Preemergence): 0
- Plant response rating, Wheat ([1]; Rate 250 g/ha, Postemergence): 2
- Plant response rating, Wheat ([1]; Rate 250 g/ha, Preemergence): 0
- Plant response rating, Wheat ([1]; Rate 500 g/ha, Postemergence): 3
- Plant response rating, Wheat ([1]; Rate 500 g/ha, Preemergence): 0
- Plant response rating, Redroot pigweed [2, 15]: 8
- Redroot pigweed plant response rating ([2]; Rate 62 g/ha, Postemergence): 8
- Redroot pigweed plant response rating ([2]; Rate 125 g/ha, Postemergence): 9
- Plant response rating, Redroot pigweed ([2]; Rate 125 g/ha, Preemergence): 9
- Plant response rating, Redroot pigweed ([2]; Rate 250 g/ha, Postemergence): 9
- Plant response rating, Redroot pigweed ([2]; Rate 250 g/ha, Preemergence): 10
- Plant response rating, Redroot pigweed ([2]; Rate 500 g/ha, Postemergence): 10
- Plant response rating, Redroot pigweed ([2]; Rate 500 g/ha, Preemergence): 10
- Plant response rating, Velvetleaf [3, 15]: 1
- Velvetleaf plant response rating ([3]; Rate 62 g/ha, Postemergence): 2
- Velvetleaf plant response rating ([3]; Rate 125 g/ha, Postemergence): 2
- Plant response rating, Velvetleaf ([3]; Rate 125 g/ha, Preemergence): 2
- Plant response rating, Velvetleaf ([3]; Rate 250 g/ha, Postemergence): 2
- Plant response rating, Velvetleaf ([3]; Rate 250 g/ha, Preemergence): 2
- Plant response rating, Velvetleaf ([3]; Rate 500 g/ha, Postemergence): 3
- Plant response rating, Velvetleaf ([3]; Rate 500 g/ha, Preemergence): 7
- Plant response rating, Soybean [4, 15]: 0
- Soybean plant response rating ([4]; Rate 62 g/ha, Postemergence): 1
- Soybean plant response rating ([4]; Rate 125 g/ha, Postemergence): 1
- Plant response rating, Soybean ([4]; Rate 125 g/ha, Preemergence): 0
- Plant response rating, Soybean ([4]; Rate 250 g/ha, Postemergence): 1
- Plant response rating, Soybean ([4]; Rate 250 g/ha, Preemergence): 0
- Plant response rating, Soybean ([4]; Rate 500 g/ha, Postemergence): 2
- Plant response rating, Soybean ([4]; Rate 500 g/ha, Preemergence): 1
- B. signalgrass plant response rating ([5]; Rate 62 g/ha, Postemergence): 2
- B. signalgrass plant response rating ([5]; Rate 62 g/ha, Preemergence): 4
- B. signalgrass plant response rating ([5]; Rate 125 g/ha, Postemergence): 2
- Plant response rating, B. signalgrass ([5]; Rate 125 g/ha, Preemergence): 4
- Plant response rating, B. signalgrass ([5]; Rate 250 g/ha, Postemergence): 2
- Plant response rating, B. signalgrass ([5]; Rate 250 g/ha, Preemergence): 8
- Plant response rating, B. signalgrass ([5]; Rate 500 g/ha, Postemergence): 3
- Plant response rating, B. signalgrass ([5]; Rate 500 g/ha, Preemergence): 9
- Plant response rating, Rape [6, 15]: 0
- Rape plant response rating ([6]; Rate 62 g/ha, Postemergence): 2
- Rape plant response rating ([6]; Rate 125 g/ha, Postemergence): 2
- Plant response rating, Rape ([6]; Rate 125 g/ha, Preemergence): 1
- Plant response rating, Rape ([6]; Rate 250 g/ha, Postemergence): 2
- Plant response rating, Rape ([6]; Rate 250 g/ha, Preemergence): 2
- Plant response rating, Rape ([6]; Rate 500 g/ha, Postemergence): 3
- Plant response rating, Rape ([6]; Rate 500 g/ha, Preemergence): 3
- Plant response rating, Nutsedge ([7]; Rate 62 g/ha, scale of 0 to 10): 0
- Nutsedge plant response rating ([7]; Rate 62 g/ha): 0
- Nutsedge plant response rating ([7]; Rate 125 g/ha): 0
- Plant response rating, Nutsedge ([7]; Rate 125 g/ha): 0
- Plant response rating, Nutsedge ([7]; Rate 250 g/ha): 0
- Plant response rating, Nutsedge ([7]; Rate 500 g/ha): 0
- Plant response rating, Bedstraw [8, 15]: 0
- Bedstraw plant response rating ([8]; Rate 62 g/ha, Postemergence): 3
- Bedstraw plant response rating ([8]; Rate 125 g/ha, Postemergence): 3
- Plant response rating, Bedstraw ([8]; Rate 125 g/ha, Preemergence): 1
- Plant response rating, Bedstraw ([8]; Rate 250 g/ha, Postemergence): 3
- Plant response rating, Bedstraw ([8]; Rate 250 g/ha, Preemergence): 2
- Plant response rating, Bedstraw ([8]; Rate 500 g/ha, Postemergence): 4
- Plant response rating, Bedstraw ([8]; Rate 500 g/ha, Preemergence): 6
- Plant response rating, Sugarbeets [9, 15]: 8
- Sugarbeets plant response rating ([9]; Rate 62 g/ha, Postemergence): 9
- Sugarbeets plant response rating ([9]; Rate 125 g/ha, Postemergence): 9
- Plant response rating, Sugarbeets ([9]; Rate 125 g/ha, Preemergence): 10
- Plant response rating, Sugarbeets ([9]; Rate 250 g/ha, Postemergence): 9
- Plant response rating, Sugarbeets ([9]; Rate 250 g/ha, Preemergence): 10
- Plant response rating, Sugarbeets ([9]; Rate 500 g/ha, Postemergence): 9
- Plant response rating, Sugarbeets ([9]; Rate 500 g/ha, Preemergence): 10
- Plant response rating, Cocklebur [10, 15]: 0
- Cocklebur plant response rating ([10]; Rate 62 g/ha, Postemergence): 2
- Cocklebur plant response rating ([10]; Rate 125 g/ha, Postemergence): 5
- Plant response rating, Cocklebur ([10]; Rate 125 g/ha, Preemergence): 0
- Plant response rating, Cocklebur ([10]; Rate 250 g/ha, Postemergence): 7
- Plant response rating, Cocklebur ([10]; Rate 500 g/ha, Postemergence): 7
- Plant response rating, Cocklebur ([10]; Rate 500 g/ha, Preemergence): 0
- Plant response rating, Corn [11, 15]: 0
- Corn plant response rating ([11]; Rate 62 g/ha, Postemergence): 1
- Corn plant response rating ([11]; Rate 125 g/ha, Postemergence): 2
- Plant response rating, Corn ([11]; Rate 125 g/ha, Preemergence): 0
- Plant response rating, Corn ([11]; Rate 250 g/ha, Postemergence): 2
- Plant response rating, Corn ([11]; Rate 250 g/ha, Preemergence): 1
- Plant response rating, Corn ([11]; Rate 500 g/ha, Postemergence): 2
- Plant response rating, Corn ([11]; Rate 500 g/ha, Preemergence): 2
- Plant response rating, Giant foxtail [12, 15]: 1
- Giant foxtail plant response rating ([12]; Rate 62 g/ha, Postemergence): 1
- Giant foxtail plant response rating ([12]; Rate 125 g/ha, Postemergence): 2
- Plant response rating, Giant foxtail ([12]; Rate 125 g/ha, Preemergence): 2
- Plant response rating, Giant foxtail ([12]; Rate 250 g/ha, Postemergence): 2
- Plant response rating, Giant foxtail ([12]; Rate 250 g/ha, Preemergence): 4
- Plant response rating, Giant foxtail ([12]; Rate 500 g/ha, Postemergence): 3
- Plant response rating, Giant foxtail ([12]; Rate 500 g/ha, Preemergence): 4
- Plant response rating, Crabgrass [13, 15]: 2
- Crabgrass plant response rating ([13]; Rate 62 g/ha, Postemergence): 2
- Crabgrass plant response rating ([13]; Rate 125 g/ha, Postemergence): 3
- Plant response rating, Crabgrass ([13]; Rate 125 g/ha, Preemergence): 3
- Plant response rating, Crabgrass ([13]; Rate 250 g/ha, Postemergence): 5
- Plant response rating, Crabgrass ([13]; Rate 250 g/ha, Preemergence): 9
- Plant response rating, Crabgrass ([13]; Rate 500 g/ha, Postemergence): 8
- Plant response rating, Crabgrass ([13]; Rate 500 g/ha, Preemergence): 10
- Plant response rating, Morningglory [14, 15]: 1
- Morningglory plant response rating ([14]; Rate 62 g/ha, Postemergence): 3
- Morningglory plant response rating ([14]; Rate 125 g/ha, Postemergence): 4
- Plant response rating, Morningglory ([14]; Rate 125 g/ha, Preemergence): 2
- Plant response rating, Morningglory ([14]; Rate 250 g/ha, Postemergence): 9
- Plant response rating, Morningglory ([14]; Rate 250 g/ha, Preemergence): 4
- Plant response rating, Morningglory ([14]; Rate 500 g/ha, Postemergence): 10
- Plant response rating, Morningglory ([14]; Rate 500 g/ha, Preemergence): 7
